Data set [1] is described as follows: Cytotoxicity in Huh-7 cells, CCK8 assay. In kind it is cell-based. To be noted: human. On the technique in general: Tetrazolium assays rely on reduction of a dye to a coloured formazan, in cell work by metabolically active cells.
Data set [2] can be described thus: Cytotoxicity in HEK293T cells, CCK8 assay. In kind it is cell-based. The settings on record: human.
Data set [3] deals with SARS-CoV-2. To be noted: read-out: anti-SARS-CoV-2 EC50 (reported); cited from earlier work.
The conditions of data set [4]: cited from earlier work.
For data set [5] the following is noted: cited from earlier work. This is another data set of the same source.
Data set [6] is described as follows: in vitro. The settings on record: African green monkey.

The structures appear in SMILES notation.

As usually defined, the EC50 is the concentration giving half of the maximal effect. With `O[C@H]1[C@H]2c3cc4c(cc3CN3CCC(=C[C@@H]1O)[C@H]23)OCO4` [lycorine], the CC50 in data set [1] was 0.834 ± 0.063 µM; in data set [2], 1.04 ± 0.0734 µM; in data set [6], more than 1000 µM. The concentration giving a half-maximal response (EC50) in data set [3] was 0.31 µM. Also, the “crossing of the blood-brain barrier” value in data set [4] is recorded as “able to cross the blood-brain barrier”. In addition, the “toxicity in animal toxicological experiments” value in data set [5] is “low toxicity and mild side effects”.
Consider `CC[C@H]1CN2CCc3cc(OC)c(OC)cc3[C@@H]2C[C@@H]1C[C@H]1NCCc2cc(O)c(OC)cc21` [cephaeline], for which the CC50 came to 3.04 ± 1.7 µM in data set [1], 2 ± 0.468 µM in data set [2] and 49 ± 46.3 µM in data set [6].
For `CC[C@H]1CN2CCc3cc(OC)c(OC)cc3[C@@H]2C[C@@H]1C[C@H]1NCCc2cc(OC)c(OC)cc21` [emetine], the CC50 in data set [1] came to 0.0334 ± 0.000617 µM; in data set [2] it was 0.0378 ± 0.000562 µM; in data set [6], 2.17 ± 0.258 µM. Also, the EC50 in data set [3] is 0.46 µM.

Source of the values: paper PMC8076879 (Acta Pharmacologica Sinica, 2021).
